Results from the NIST ThermoML archive (doi:10.1016/j.jct.2015.05.024).

Assay: xn = mol fraction of the nth substance listed
Conditions: 100 kPa, Liquid; for mass density: Vibrating tube method; for speed of sound: Frequency=5 MHz, Pulse-echo method

OCCOCCOCCO [triethylene glycol] + O
Conditions | mass density [kg/m3] | speed of sound [m/s]
308.15 K, x1 = 0.4877 | 1107.17 | –
308.15 K, x1 = 0.5004 | 1107.43 | –
308.15 K, x1 = 0.5739 | 1108.68 | –
308.15 K, x1 = 0.58 | 1108.77 | –
308.15 K, x1 = 0.6465 | 1109.59 | –
308.15 K, x1 = 0.651 | 1109.63 | –
308.15 K, x1 = 0.7008 | 1110.12 | –
308.15 K, x1 = 0.7471 | 1110.49 | –
308.15 K, x1 = 0.7677 | 1110.64 | –
308.15 K, x1 = 0.82 | 1110.99 | –
308.15 K, x1 = 0.8623 | 1111.23 | –
308.15 K, x1 = 0.8792 | 1111.32 | –
308.15 K, x1 = 0.8975 | 1111.42 | –
308.15 K, x1 = 0.9203 | 1111.54 | –
308.15 K, x1 = 0.9514 | 1111.69 | –
308.15 K, x1 = 0.9692 | 1111.78 | –
308.15 K, x1 = 1 | 1111.92 | –
313.15 K, x1 = 0.00059 | – | 1530.8
313.15 K, x1 = 0.002696 | – | 1537.9
313.15 K, x1 = 0.006871 | – | 1551.2
313.15 K, x1 = 0.01006 | – | 1560.8
313.15 K, x1 = 0.0107 | 1003.69 | –
313.15 K, x1 = 0.01494 | – | 1574.7
313.15 K, x1 = 0.02047 | 1013.09 | –
313.15 K, x1 = 0.02274 | – | 1594.6
313.15 K, x1 = 0.02979 | – | 1610.7
313.15 K, x1 = 0.03584 | – | 1623
313.15 K, x1 = 0.03972 | 1028.97 | –
313.15 K, x1 = 0.04219 | – | 1634.6
313.15 K, x1 = 0.04979 | 1036.07 | –
313.15 K, x1 = 0.05045 | – | 1647.8
313.15 K, x1 = 0.05689 | – | 1656.8
313.15 K, x1 = 0.06687 | – | 1668.7
313.15 K, x1 = 0.06996 | 1048.19 | –
313.15 K, x1 = 0.07692 | – | 1678.3
313.15 K, x1 = 0.08288 | – | 1683
313.15 K, x1 = 0.09135 | – | 1688.6
313.15 K, x1 = 0.09262 | – | 1689.3
313.15 K, x1 = 0.09424 | 1059.72 | –
313.15 K, x1 = 0.1004 | – | 1693.3
313.15 K, x1 = 0.1079 | – | 1696.2
313.15 K, x1 = 0.116 | – | 1698.7
313.15 K, x1 = 0.1201 | – | 1699.6
313.15 K, x1 = 0.1232 | – | 1700.2
313.15 K, x1 = 0.1303 | – | 1701.1
313.15 K, x1 = 0.1343 | – | 1701.5
313.15 K, x1 = 0.1377 | – | 1701.6
313.15 K, x1 = 0.1423 | – | 1701.7
313.15 K, x1 = 0.1481 | 1076.91 | –
313.15 K, x1 = 0.1573 | – | 1701
313.15 K, x1 = 0.1723 | – | 1699
313.15 K, x1 = 0.1866 | – | 1696.2
313.15 K, x1 = 0.2006 | 1086.71 | –
313.15 K, x1 = 0.2037 | – | 1692.2
313.15 K, x1 = 0.2426 | – | 1681.2
313.15 K, x1 = 0.2502 | 1092.5 | –
313.15 K, x1 = 0.2794 | – | 1670.3
313.15 K, x1 = 0.2988 | 1096.26 | –
313.15 K, x1 = 0.3209 | – | 1658.6
313.15 K, x1 = 0.3492 | 1098.98 | –
313.15 K, x1 = 0.3925 | 1100.7 | –
313.15 K, x1 = 0.403 | – | 1638.8
313.15 K, x1 = 0.4502 | 1102.42 | –
313.15 K, x1 = 0.4658 | – | 1626
313.15 K, x1 = 0.4877 | 1103.29 | –
313.15 K, x1 = 0.5004 | 1103.55 | –
313.15 K, x1 = 0.5676 | – | 1608
313.15 K, x1 = 0.5739 | 1104.8 | –
313.15 K, x1 = 0.58 | 1104.89 | –
313.15 K, x1 = 0.6465 | 1105.71 | –
313.15 K, x1 = 0.651 | 1105.76 | –
313.15 K, x1 = 0.6969 | – | 1590.8
313.15 K, x1 = 0.7008 | 1106.24 | –
313.15 K, x1 = 0.7471 | 1106.61 | –
313.15 K, x1 = 0.7677 | 1106.76 | –
313.15 K, x1 = 0.82 | 1107.11 | –
313.15 K, x1 = 0.8623 | 1107.35 | –
313.15 K, x1 = 0.8694 | – | 1577.9
313.15 K, x1 = 0.8792 | 1107.44 | –
313.15 K, x1 = 0.9455 | – | 1572.9
313.15 K, x1 = 1 | – | 1569.1
